# Oligonucleotides are written 5' to 3', each unit as a sugar letter and its base; * is a phosphorothioate linkage, no mark a phosphodiester; rarer units and linkages stand in square brackets, end groups in braces. Plain capitals give the bases only. d = 2'-deoxy (DNA)
# Legend:
# [1] = test system: outer membrane of Salmonella; assay: Outer membrane permeabilization (NPN fluorescence); assay type: cell-based, Salmonella enterica serovar Typhimurium strain SL1344; set-up: key to Outer-membrane permeation: -: Effect strength is represented by additional (+) signs.; Effect strength is represented by additional (+) signs.; ++: Effect strength is represented by additional (+) signs.; +++: Effect strength is represented by additional (+) signs; conditions: for Outer-membrane permeation: summary grade, ASO conjugated to the carrier peptide; for Outer membrane permeabilization, NPN fluorescence (in words): test compounds 10 µM final, added at 14 min, NPN 10 µM, 5 mM HEPES, 5 mM glucose pH 7.2, CTAB and Polymyxin B positive controls
# Method: The experiments were performed by modifying previously published protocols ([48]–[50]). Salmonella (WT SL1344, JVS-1574) were grown overnight in 4 ml MHB medium at 37 °C (with shaking at 220 rpm). Then the culture was diluted 1:100 and grown until OD 0.5 (∼2×10^8 cfu/mL). This culture was harvested and washed two times with 5mM HEPES and further diluted to OD 0.2 in 5 mM HEPES supplemented with 5 mM Glucose (pH 7.2). These cells were then incubated with N-phenylnaphthylamine (NPN) (Sigma, USA) at a final concentration of 10 µM. 190 µl of NPN treated cells were transferred into 96-well back plates with transparent bottom and fluorescence (excitation = 350 nm, emission = 420 nm) was recorded for 60 min (reading was performed every minute) using a Synergy H1 plate reader (Biotek). On the fourteenth minute, 10 µl of the test compounds (10 µM final concentration) was added into the wells. CTAB (Sigma, USA) 200 µM or Polymyxin B (Sigma, USA) 10 µg/ml (final concentration of 0.5 µg/ml) were used as positive controls, while water was used as negative control. The fluorescence of the wells were monitored using the same settings as above. The experiment was performed three times and Figure 10 is based on a single representative experiment.
# Salmonella periplasm = assay: MALDI-TOF analysis of ASO-peptide conjugate uptake; assay type: cell-based; set-up: key: -: Effect strength is represented by additional (+) signs.; Effect strength is represented by additional (+) signs.; ++: Effect strength is represented by additional (+) signs.; +++: Effect strength is represented by additional (+) signs; conditions: summary grade; ASO conjugated to the carrier peptide
# Method: The experiments were performed by modifying previously published protocols ([29]). From an overnight culture of Salmonella, a second culture was inoculated (1:100) and grown to OD600 of 0.5 (corresponding to ∼2×10^8 cfu/mL). These bacterial cells was washed twice in MHB and resuspended in 95 µl of MHB with an additional incubation at 37°C for 5-10 min. Sterile ASO-peptide conjugates were prepared at concentrations of 200 µM. 5 µl of the 200 µM working solutions were added to 95 µl of bacteria in culture media, leading to a final concentration of the compounds of 10 µM. 5 µl of H2O was added as a negative control. The tubes were incubated at 37°C for 15 min with shaking at 300 rpm. Subsequently, they were centrifuged at 8,000 x g for 5 min at 4 °C. The supernatant was aspirated and the pellet was washed with 0.01 M Tris-HCl before being resuspended in 200 µl of 0.01M Tris-HCl containing 0.5 M Sucrose, 150 µg/ml lysozyme, 10 mM EDTA and incubated at 37 °C overnight. These tubes were then centrifuged at 2,000 x g at 4°C for 10 min. The supernatant obtained represents the periplasm. The pellet containing spheroplasts was gently washed with 0.01 M Tris-HCl containing 0.5 M Sucrose and resuspended in 20 ml of B-PER™ Bacterial Protein Extraction Reagent (Thermo Fischer Scientific) for 1 h. After this, the spheroplasts were subjected to sonication (20kHz for 2×10 s), incubated on ice for 5 min and centrifuged at 20,000 x g for 30 min at 4 °C. The supernatant represents the cytoplasm. Both the periplasm and cytoplasm fragments were then mixed with 2, 6-Dihydroxyacetophenone (DHAP) in ACN 1:1, spotted on a MALDI plate and analyzed for MALDI-TOF-MS in a Bruker DaltonicsUltrafleXtreme Instrument. The experiment was performed two times and data of one representative experiment are shown.
Substance,Outer-membrane permeation [1],Uptake inside bacteria (MS) (Salmonella periplasm),"Outer membrane permeabilization, NPN fluorescence (in words) [1]"
"DNA-PTO: 10mer phosphorothioate-modified DNA antisense oligomer, sequence CTCATACTCT, targeting acpP (antisense dC*dT*dC*dA*dT*dA*dC*dT*dC*dT)",-,-,
"LNA: 10mer 2'-4'-locked RNA antisense oligomer, sequence CTCATACTCT, targeting acpP (all LNA, backbone and methylation of C not given here)",-,-,
"PMO: 10mer phosphorodiamidate morpholino antisense oligomer, sequence CTCATACTCT, targeting acpP (all phosphorodiamidate morpholino (PMO))",++,,this ability is retained
"PNA: 10mer peptide nucleic acid antisense oligomer, sequence CTCATACTCT, targeting acpP (all peptide nucleic acid (PNA))",++,,this ability is retained
"RNA-F: 10mer 2'-fluorinated RNA antisense oligomer, sequence CTCATACTCT, targeting acpP (all 2'-fluoro, backbone and T or U not given here)",-,-,
"RNA-MOE: 10mer 2'-methoxyethylated RNA antisense oligomer, sequence CTCATACTCT, targeting acpP (all 2'-MOE, backbone and methylation of C not given here)",-,-,
"RNA-OMe: 10mer 2'-methylated RNA antisense oligomer, sequence CTCATACTCT, targeting acpP (all 2'-O-methyl, backbone and T or U not given here)",-,-,

# Reference: doi:10.1101/2023.07.11.548539v1, “A side-by-side comparison of peptide-delivered antisense antibiotics employing different nucleotide mimics” (bioRxiv, 2023)
